This is an account of results in paper PMC4643019, “Imaging Sites of Inhibition of Proteolysis in Pathomimetic Human Breast Cancer Cultures by Light-Activated Ruthenium Compound” (PLoS ONE, 2015).

For orientation: IC50 means the concentration that inhibits the measured activity by half.

“Also recorded” adds a separate entry of the source.

In data set [1] the test system is MDA-MB-231 3D MAME cultures. As to the kind of experiment: Live-cell proteolysis assay (DQ-collagen IV) in 3D MAME cultures, MDA-MB-231. It is filed as cell-based, human. As for the experimental part: (§1) Proteolytic cleavage of DQ-collagen IV substrate (Invitrogen, Carlsbad, CA, USA) by live TNBC cells was imaged in real time and quantified as previously described. Briefly, glass coverslips were coated with 50 μl of 16.4 mg/ml Cultrex^TM containing 25 μg/ml DQ-collagen IV and incubated for 15 min at 37°C to solidify. TNBC cells (1.0 x 10^4) were seeded onto coated glass coverslips and incubated for 60 min. Medium containing 2% Cultrex^TM was added to the cells. The sample was added every 48 h. […] Where indicated, assays were performed in the presence of CA074 and CA074Me (5 μM each) (Peptides International, Louisville, KY, USA), compound 1 or compound 2. For experiments with the caged inhibitor, cells were exposed to dark (no irradiation) and light (irradiation at 250 W, 395–750 nm) conditions for 45 min with a tungsten halogen lamp and H2O filter on separate plates. After 4 days of culture, optical sections through the entire depth of the 3D structures were acquired on a confocal microscope and, reconstructed in 3D using Volocity software. At the time of imaging cells were stained with CellTracker Orange and nuclei with Hoechst 33342. Volocity software was used to determine cellular boundaries in each confocal slice and generate a “cytoplasmic mask” as well as to count nuclei. The intensity of DQ-collagen IV degradation fragments per cell was quantified in the entire 3D volume. Degradation fragments were segmented into those present inside or surrounding the cells by using image arithmetic as we have previously described in detail.

The next data set deals with Hs578T 3D MAME cultures. The experiment in a line: Live-cell proteolysis assay (DQ-collagen IV) in 3D MAME cultures, Hs578T. In kind it is cell-based, human. On the procedure: as §1
Another data set concerns cathepsin L. The arrangement: method as in PMID 12437121. To be noted: cited from earlier work.
The conditions of data set [2]: not told; cited from earlier work.
The target in data set [3] is T1, CTSB purified from human liver (Homo sapiens, UniProt P07858).
T1 construct: CTSB purified from human liver was purchased from Athens Research & Technology; purchased Athens Research & Technology (Athens, GA, USA); host or cells: human liver (tissue-purified)
As to the kind of experiment: Cathepsin B activity assay with purified enzyme (Z-Arg-Arg-AMC). It is filed as biochemical. The following applies: uncaged compound 1; CTSB 10 nM, substrate 150 μM; read-out: IC50. On the procedure:
CTSB purified from human liver was purchased from Athens Research & Technology (Athens, GA, USA). The enzyme activity was determined from kinetic measurements performed by fluorimetric detection of the hydrolysis product AMC at 37°C for 30 min at one-minute intervals using a Tecan SpectraFluor Plus plate-reader. The excitation and emission wavelengths were 360 and 485 nm, respectively. The fluorescent substrate Z-Arg-Arg-AMC (Bachem, Torrance, CA, USA) was used at a final concentration of 150 μM.
The enzyme was activated for 15 minutes with activator buffer (100 μl) containing 5 mM EDTA, 10 mM DTT (pH 5.2) at 37°C. The sample (1 μl) was added and the reaction mixtures were conducted during 45 min under dark (no irradiation) and light (irradiation at 250 W, 395–750 nm) conditions with a tungsten halogen lamp and H2O filter on separate plates. For the experiments under dark conditions, room lights were off and in addition the plate was covered with aluminum foil (light protection); the other plate was exposed to visible light for the same time period. The irradiation wavelength was selected by placing a 395 long-pass filter between the lamp and the sample, along with a 10 cm water cell to absorb infrared light. After photolysis, the reaction was initiated by addition of 200 μl of assay buffer (0.6 mM CaCl2, 0.6 mM MgCl2, 25 mM piperazin-N-N‘-bis[2-ethanosulfonic acid] (disodium salt)), pH 7.3 containing 150 μM Z-Arg-Arg-AMC substrate solution. Enzyme concentration was 10 nM. The experiments were carried out in triplicate in 96-well flat bottom black plates at pH 6.0. Enzyme activities are expressed as a percentage, with 100% equal to activity in the absence of inhibitor. IC50 values were determined by plotting percent activity vs. log (inhibitor concentration).

The target of data set [4] is T2, CTSB activity in MDA-MB-231 cell lysates (Homo sapiens, UniProt P07858).
T2 construct: endogenous in cells; host or cells: MDA-MB-231 (ATCC) cell lysate
As to the kind of experiment: Inhibition of cellular cathepsin B activity in MDA-MB-231 cell lysates (Z-Arg-Arg-AMC). In kind it is biochemical. To be noted: uncaged compound 1; MDA-MB-231 lysate; read-out: IC50. On the procedure:
(§2) TNBC cell lines were originally purchased from American Type Culture Collection (Rockville, MD, USA) and authenticated using the STR PowerPlex 16 system (Promega). Cells were cultured in basal medium supplemented with 10% fetal bovine serum (MDA-MB-231, DMEM; Hs578T, DMEM + 10 μg/ml bovine insulin). To prepare cell lysates, cells were grown on 100 mm dishes to ~80% confluency, washed twice with PBS (phosphate buffered saline), scraped and lysed in SME buffer (250 mM sucrose, 25 mM MES, 1 mM EDTA, pH 6.5, and 0.1% Triton X-100) and then sonicated on ice three times for 10 sec each. CTSB activity was measured as previously described. Briefly, 50 μl of cell lysate was incubated with 300 μl of activator buffer (5 mM EDTA, 10 mM DTT (pH 5.2) at 37°C during 15 min. The sample (1 μl) was added to 100 μl of the activator buffer containing cell lysate and the reaction mixtures were conducted during 45 min under dark (no irradiation) and light (irradiation at 250 W, 395–750 nm) conditions for 45 min with a tungsten halogen lamp and H2O filter on separate plates as described above. The experiments were carried out in triplicate (on 96-well flat bottom black plates) at pH 6.0.

In data set [5] the target is T3, CTSB activity in Hs578T cell lysates (Homo sapiens, UniProt P07858).
T3 construct: endogenous in cells; host or cells: Hs578T (ATCC) cell lysate
As to the kind of experiment: Inhibition of cellular cathepsin B activity in Hs578T cell lysates (Z-Arg-Arg-AMC). It is filed as biochemical. To be noted: uncaged compound 1; Hs578T lysate; read-out: IC50. As for the experimental part:
as §2

Another data set is described as follows: Solubility (statement). In kind it is physicochemical.
Data set [6] deals with recombinant human CTSB expressed in baculovirus. The arrangement: method as in PMID 11741472. To be noted: cited from earlier work.

Regarding `CC#N.CC#N.F[P-](F)(F)(F)(F)F.F[P-](F)(F)(F)(F)F.[Ru+2].c1ccc(-c2ccccn2)nc1.c1ccc(-c2ccccn2)nc1` [compound 3, cis-[Ru(bpy)2(MeCN)2](PF6)2, reference compound], the “inhibition of proteolysis (DQ-collagen IV)” value in data set [1] (MDA-MB-231, 1 μM, light vs. dark conditions, 4 days) is reported as “did not inhibit proteolysis”; in the data set on Hs578T 3D MAME cultures (1 μM, light vs. dark conditions, 4 days) it was “did not inhibit proteolysis”.

On to `CCCNC(=O)[C@H]1O[C@@H]1C(=O)N[C@H](C(=O)N1CCC[C@H]1C(=O)OC)[C@@H](C)CC` [CA074Me], for which the “inhibition of cathepsin L” value with cathepsin L was “inhibits”. For the same compound, the cell permeability result in [2] is listed as “cell permeable”.

Take `CCCNC(=O)[C@H]1O[C@@H]1C(=O)N[C@H](C(=O)N1CCC[C@H]1C(=O)O)[C@@H](C)CC` [CA074]: the “inhibition of cathepsin L” value in the data set on cathepsin L is recorded as “not”. In data set [2], the cell permeability entry is listed as “non-cell permeable”.

On to `Cc1cccc(C[C@H](NC(=O)c2ccc(Cl)c(Cl)c2)C(=O)NCC#N)c1` [compound 1, (S)-3,4-dichloro-N-(1-((cyanomethyl)amino)-1-oxo-3-(m-tolyl)propan-2-yl)benzamide], for which the results for the IC50 in data set [3], in data set [4] and in data set [5] were 330 nM, 1540 nM and 910 nM, respectively. Further, the “total degradation of DQ-collagen IV” value is listed as “significantly less degradation of DQ-collagen IV; also recorded: significant reductions” in data set [1] (MDA-MB-231, 4 days of culture, concentration of 1 not given) and “significantly less degradation of DQ-collagen IV; also recorded: significant reductions” in the data set with Hs578T 3D MAME cultures (4 days of culture, concentration of 1 not given). In addition, the “pericellular proteolysis (DQ-collagen IV)” value was “significant reductions” in data set [1] (MDA-MB-231, 4 days, concentration of 1 not given) and “significant reductions” in the data set on Hs578T 3D MAME cultures (4 days, concentration of 1 not given). Moreover, the “solubility in H2O” value in “Solubility (statement)” is on record as “low solubility”. Also, in [6], the “inhibition of recombinant human CTSB” value was “potent, selective and reversible inhibitor”.
